Measurements reported in patent US20220235011A1, “PHTHALAZINONE COMPOUNDS AND USE THEREOF” (ST PHARM CO., LTD., priority 2019, published 2022).

Molecular target: T1, Sirt6 (Homo sapiens, UniProt Q8N6T7)
T1 construct: purchased CycLex CY-1156V2
Test: Measurement of Sirt6 Activity (CycLex Sirt6 Deacetylase Fluorometric Assay Kit)
Type: biochemical
Conditions: compound at 10 μM; fluorescence relative to the group without compound treatment (positive control group)
Method in brief: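 Recombinant Sirt6 with fluoro-labelled acetyl-lysine peptide, NAD and lysylendopeptidase developer, compound added from 10× stock in PBS; 1 h at room temperature. Fluorescence read at ex 490/em 530 nm; activation expressed as fluorescence ratio relative to enzyme without compound.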

T1 sequence (Q8N6T7 whole entry): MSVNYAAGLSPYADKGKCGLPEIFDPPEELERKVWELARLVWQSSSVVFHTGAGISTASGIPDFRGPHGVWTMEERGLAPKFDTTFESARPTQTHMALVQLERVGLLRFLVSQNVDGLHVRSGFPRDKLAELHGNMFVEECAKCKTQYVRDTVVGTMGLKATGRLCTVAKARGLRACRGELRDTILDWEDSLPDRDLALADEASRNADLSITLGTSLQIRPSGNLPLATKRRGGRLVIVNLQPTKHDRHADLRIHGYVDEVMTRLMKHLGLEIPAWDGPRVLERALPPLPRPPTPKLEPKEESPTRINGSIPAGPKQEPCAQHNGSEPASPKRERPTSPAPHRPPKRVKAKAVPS

For `CC(C)S(=O)(=O)N(C)c1cccc(-c2nn(-c3ccc(F)cc3)c(=O)c3ccccc23)c1` [Example 73, N-(3-(3-(4-Fluorophenyl)-4-oxo-3,4-dihydrophthalazin-1-yl)phenyl)-N-methylpropan-2-sulfonamide], the “Sirt6 Activity (% activity, 10 μM)” value was 124 % activity.

For `CN(c1cccc(-c2nn(-c3ccc(F)cc3)c(=O)c3ccccc23)c1)S(=O)(=O)C1CC1` [Example 74, N-(3-(3-(4-Fluorophenyl)-4-oxo-3,4-dihydrophthalazin-1-yl)phenyl)-N-methylcyclopropane Sulfonamide], the “Sirt6 Activity (% activity, 10 μM)” value was 128 % activity.

`CN(C)S(=O)(=O)N(C)c1cccc(-c2nn(-c3ccc(F)cc3)c(=O)c3ccccc23)c1` [Example 75, N-(3-(3-(4-Fluorophenyl)-4-oxo-3,4-dihydrophthalazin-1-yl)phenyl)-N-methyl-dimethyl Sulfamoylamide] was tested, and the “Sirt6 Activity (% activity, 10 μM)” value was 139 % activity.

For `COC(=O)N(C)S(=O)(=O)N(C)c1cccc(-c2nn(-c3ccc(F)cc3)c(=O)c3ccccc23)c1` [Example 76, Methyl (N-(3-(3-(4-fluorophenyl)-4-oxo-3,4-dihydrophthalazin-1-yl)phenyl)-N-methylsulfamoyl) (methyl)carbamate], the “Sirt6 Activity (% activity, 10 μM)” value was 125 % activity.

For `O=c1c2ccccc2c(-c2cccc(NS(=O)(=O)C(F)(F)F)c2)nn1-c1ccc(F)cc1` [Example 77, 1,1,1-Trifluoro-N-(3-(3-(4-fluorophenyl)-4-oxo-3,4-dihydrophthalazin-1-yl)phenyl)methanesulfonamide], the “Sirt6 Activity (% activity, 10 μM)” value was 194 % activity.

`CN(c1cccc(-c2nn(-c3ccc(F)cc3)c(=O)c3ccccc23)c1)S(=O)(=O)C(F)(F)F` [Example 78, 1,1,1-Trifluoro-N-(3-(3-(4-fluorophenyl)-4-oxo-3,4-dihydrophthalazin-1-yl)phenyl)-N-methylmethane Sulfonamide] was tested, and the “Sirt6 Activity (% activity, 10 μM)” value was 122 % activity.

`O=C(NOC1CCCCO1)c1cccc(-c2nn(-c3ccc(F)cc3)c(=O)c3ccccc23)c1` (stereo not shown) [Example 79, 3-(3-(4-Fluorophenyl)-4-oxo-3,4-dihydrophthalazin-1-yl)-N-((tetrahydro-2H-pyran-2-yl)oxy)benzamide] was tested, and the “Sirt6 Activity (% activity, 10 μM)” value was 167 % activity.

For `CNS(=O)(=O)N(C)c1cccc(-c2nn(-c3ccc(F)cc3)c(=O)c3ccccc23)c1` [Example 80, N-(3-(3-(4-Fluorophenyl)-4-oxo-3,4-dihydrophthalazin-1-yl)phenyl)-N-methyl-methyl Sulfamoylamide], the “Sirt6 Activity (% activity, 10 μM)” value was 216 % activity.

In the case of `O=c1c2ccccc2c(-c2cccc(-c3nnn[nH]3)c2)nn1-c1ccc(F)cc1` [Example 81, 4-(3-(1H-Tetrazol-5-yl)phenyl)-2-(4-fluorophenyl)phthalazin-1(2H)-one], the “Sirt6 Activity (% activity, 10 μM)” value was 115 % activity.

For `CCS(=O)(=O)Nc1cncc(-c2nn(-c3ccc(F)cc3)c(=O)c3ccccc23)c1` [Example 82, N-(5-(3-(4-Fluorophenyl)-4-oxo-3,4-dihydrophthalazin-1-yl)pyridin-3-yl)ethanesulfonamide], the “Sirt6 Activity (% activity, 10 μM)” value was 111 % activity.

With `O=C(NO)c1cccc(-c2nn(-c3ccc(F)cc3)c(=O)c3ccccc23)c1` [Example 83, 3-(3-(4-Fluorophenyl)-4-oxo-3,4-dihydrophthalazin-1-yl)-N-hydroxybenzamide] the “Sirt6 Activity (% activity, 10 μM)” value was 162 % activity.

In the case of `C/[N+]([O-])=C/c1cccc(-c2nn(-c3ccc(-c4ccccc4)cc3)c(=O)c3ccccc23)c1` [Example 84, (Z)-1-(3-(3-([1,1′-Biphenyl]-4-yl)-4-oxo-3,4-dihydrophthalazin-1-yl)phenyl)-N-methylmethanimine Oxide], the “Sirt6 Activity (% activity, 10 μM)” value was 123 % activity.

`CC(C)/[N+]([O-])=C/c1cccc(-c2nn(-c3ccc(-c4ccccc4)cc3)c(=O)c3ccccc23)c1` [Example 85, (Z)-1-(3-(3-([1,1′-Biphenyl]-4-yl)-4-oxo-3,4-dihydrophthalazin-1-yl)phenyl)-N-isopropylmethanimine Oxide] was tested, and the “Sirt6 Activity (% activity, 10 μM)” value was 118 % activity.

In the case of `CNS(=O)(=O)c1cccc(-c2nn(-c3ccc(F)cc3)c(=O)c3ccccc23)c1` [Example 86, 3-(3-(4-Fluorophenyl)-4-oxo-3,4-dihydrophthalazin-1-yl)-N-methylbenzenesulfonamide], the “Sirt6 Activity (% activity, 10 μM)” value was 196 % activity.

For `CCNS(=O)(=O)c1cccc(-c2nn(-c3ccc(F)cc3)c(=O)c3ccccc23)c1` [Example 87, N-Ethyl-3-(3-(4-fluorophenyl)-4-oxo-3,4-dihydrophthalazin-1-yl)benzenesulfonamide], the “Sirt6 Activity (% activity, 10 μM)” value was 226 % activity.

`CN(C)S(=O)(=O)c1cccc(-c2nn(-c3ccc(F)cc3)c(=O)c3ccccc23)c1` [Example 88, 3-(3-(4-Fluorophenyl)-4-oxo-3,4-dihydrophthalazin-1-yl)-N,N-dimethylbenzene Sulfonamide] was tested, and the “Sirt6 Activity (% activity, 10 μM)” value was 180 % activity.

With `CS(=O)(=O)c1cccc(-c2nn(-c3ccc(F)cc3F)c(=O)c3ccccc23)c1` [Example 89, 2-(2,4-Difluorophenyl)-4-(3-(methylsulfonyl)phenyl)phthalazin-1 (2H)-one] the “Sirt6 Activity (% activity, 10 μM)” value was 339 % activity.

With `CCS(=O)(=O)c1cccc(-c2nn(-c3ccc(F)cc3F)c(=O)c3ccccc23)c1` [Example 90, 2-(2,4-Difluorophenyl)-4-(3-(ethylsulfonyl)phenyl)phthalazin-1(2H)-one] the “Sirt6 Activity (% activity, 10 μM)” value was 283 % activity.

With `CNS(=O)(=O)c1cccc(-c2nn(-c3ccc(F)cc3F)c(=O)c3ccccc23)c1` [Example 91, 3-(3-(2,4-Difluorophenyl)-4-oxo-3,4-dihydrophthalazin-1-yl)-N-methylbenzene Sulfonamide] the “Sirt6 Activity (% activity, 10 μM)” value was 272 % activity.

For `CCNS(=O)(=O)c1cccc(-c2nn(-c3ccc(F)cc3F)c(=O)c3ccccc23)c1` [Example 92, 3-(3-(2,4-Difluorophenyl)-4-oxo-3,4-dihydrophthalazin-1-yl)-N-ethylbenzene Sulfonamide], the “Sirt6 Activity (% activity, 10 μM)” value was 208 % activity.

`CN(C)S(=O)(=O)c1cccc(-c2nn(-c3ccc(F)cc3F)c(=O)c3ccccc23)c1` [Example 93, 3-(3-(2,4-Difluorophenyl)-4-oxo-3,4-dihydrophthalazin-1-yl)-N,N-dimethylbenzene Sulfonamide] was tested, and the “Sirt6 Activity (% activity, 10 μM)” value was 227 % activity.

For `C/[N+]([O-])=C/c1cccc(-c2nn(-c3ccccc3F)c(=O)c3ccccc23)c1` [Example 94, (Z)-1-(3-(3-(2-Fluorophenyl)-4-oxo-3,4-dihydrophthalazin-1-yl)phenyl)-N-methyl Methanimine Oxide], the “Sirt6 Activity (% activity, 10 μM)” value was 272 % activity.

With `CC(C)/[N+]([O-])=C/c1cccc(-c2nn(-c3ccccc3F)c(=O)c3ccccc23)c1` [Example 95, (Z)-1-(3-(3-(2-Fluorophenyl)-4-oxo-3,4-dihydrophthalazin-1-yl)phenyl)-N-isopropyl Methanimine Oxide] the “Sirt6 Activity (% activity, 10 μM)” value was 133 % activity.

With `CC(C)(C)/[N+]([O-])=C/c1cccc(-c2nn(-c3ccccc3F)c(=O)c3ccccc23)c1` [Example 96, (Z)—N-tert-Butyl-1-(3-(3-(2-fluorophenyl)-4-oxo-3,4-dihydrophthalazin-1-yl)phenyl)methanimine Oxide] the “Sirt6 Activity (% activity, 10 μM)” value was 176 % activity.

`CS(=O)(=O)c1cccc(-c2nn(-c3ccccc3F)c(=O)c3ccccc23)c1` [Example 97, 2-(2-Fluorophenyl)-4-(3-(methylsulfonyl)phenyl)phthalazin-1(2H)-one] was tested, and the “Sirt6 Activity (% activity, 10 μM)” value was 286 % activity.

With `CCS(=O)(=O)c1cccc(-c2nn(-c3ccccc3F)c(=O)c3ccccc23)c1` [Example 98, 4-(3-(Ethylsulfonyl)phenyl)-2-(2-fluorophenyl)phthalazin-1(2H)-one] the “Sirt6 Activity (% activity, 10 μM)” value was 264 % activity.

With `CNS(=O)(=O)c1cccc(-c2nn(-c3ccccc3F)c(=O)c3ccccc23)c1` [Example 99, 3-(3-(2-Fluorophenyl)-4-oxo-3,4-dihydrophthalazin-1-yl)-N-methylbenzenesulfonamide] the “Sirt6 Activity (% activity, 10 μM)” value was 259 % activity.

For `CCNS(=O)(=O)c1cccc(-c2nn(-c3ccccc3F)c(=O)c3ccccc23)c1` [Example 100, N-Ethyl-3-(3-(2-fluorophenyl)-4-oxo-3,4-dihydrophthalazin-1-yl)benzenesulfonamide], the “Sirt6 Activity (% activity, 10 μM)” value was 196 % activity.

With `CN(C)S(=O)(=O)c1cccc(-c2nn(-c3ccccc3F)c(=O)c3ccccc23)c1` [Example 101, 3-(3-(2-Fluorophenyl)-4-oxo-3,4-dihydrophthalazin-1-yl)-N,N-dimethylbenzene Sulfonamide] the “Sirt6 Activity (% activity, 10 μM)” value was 153 % activity.

In the case of `C/[N+]([O-])=C/c1cccc(-c2nn(-c3c(F)cccc3F)c(=O)c3ccccc23)c1` [Example 102, (Z)-1-(3-(3-(2,6-Difluorophenyl)-4-oxo-3,4-dihydrophthalazin-1-yl)phenyl)-N-methylmethanimine Oxide], the “Sirt6 Activity (% activity, 10 μM)” value was 206 % activity.

With `CC(C)/[N+]([O-])=C/c1cccc(-c2nn(-c3c(F)cccc3F)c(=O)c3ccccc23)c1` [Example 103, (Z)-1-(3-(3-(2,6-Difluorophenyl)-4-oxo-3,4-dihydrophthalazin-1-yl)phenyl)-N-isopropylmethanimine Oxide] the “Sirt6 Activity (% activity, 10 μM)” value was 324 % activity.

`CC(C)(C)/[N+]([O-])=C/c1cccc(-c2nn(-c3c(F)cccc3F)c(=O)c3ccccc23)c1` [Example 104, (Z)—N-tert-Butyl-1-(3-(3-(2,6-difluorophenyl)-4-oxo-3,4-dihydrophthalazin-1-yl)phenyl)methanimine Oxide] was tested, and the “Sirt6 Activity (% activity, 10 μM)” value was 284 % activity.

With `CS(=O)(=O)c1cccc(-c2nn(-c3c(F)cccc3F)c(=O)c3ccccc23)c1` [Example 105, 2-(2,6-Difluorophenyl)-4-(3-(methylsulfonyl)phenyl)phthalazin-1 (2H)-one] the “Sirt6 Activity (% activity, 10 μM)” value was 226 % activity.

For `CCS(=O)(=O)c1cccc(-c2nn(-c3c(F)cccc3F)c(=O)c3ccccc23)c1` [Example 106, 2-(2,6-Difluorophenyl)-4-(3-(ethylsulfonyl)phenyl)phthalazin-1(2H)-one], the “Sirt6 Activity (% activity, 10 μM)” value was 141 % activity.
